How the values were obtained:
[1] = biological target: Death-associated protein kinase 2 (Homo sapiens) (UniProt Q9UIK4); assay: Selectivity interaction (KinomeScan (DiscoverX)) EUB0001079a DAPK2; details: at 1 µM
[2] = biological target: T1, NUAK family SNF1-like kinase 2 (Homo sapiens) (UniProt Q9H093); assay: Selectivity interaction (KinomeScan (DiscoverX)) EUB0000595a NUAK2; details: at 10 µM
T1 sequence (whole entry): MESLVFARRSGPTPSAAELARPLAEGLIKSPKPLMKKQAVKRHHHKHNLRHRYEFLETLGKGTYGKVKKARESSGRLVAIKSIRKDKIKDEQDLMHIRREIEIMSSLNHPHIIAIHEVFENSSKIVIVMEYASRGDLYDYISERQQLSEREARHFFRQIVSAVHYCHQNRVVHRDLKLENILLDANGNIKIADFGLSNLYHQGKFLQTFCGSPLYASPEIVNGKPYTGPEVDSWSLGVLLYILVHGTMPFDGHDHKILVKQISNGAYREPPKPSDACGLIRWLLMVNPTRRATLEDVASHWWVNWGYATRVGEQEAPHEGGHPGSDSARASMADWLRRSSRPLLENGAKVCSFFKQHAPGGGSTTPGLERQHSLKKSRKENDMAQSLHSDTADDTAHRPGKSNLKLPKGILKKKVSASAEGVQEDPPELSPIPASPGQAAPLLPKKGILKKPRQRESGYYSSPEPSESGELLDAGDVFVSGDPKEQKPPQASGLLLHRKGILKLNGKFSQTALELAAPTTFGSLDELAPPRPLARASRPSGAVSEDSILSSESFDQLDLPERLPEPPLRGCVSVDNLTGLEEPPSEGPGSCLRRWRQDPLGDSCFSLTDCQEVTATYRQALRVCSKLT

[3] = tested on: eIF-2-alpha kinase GCN2 (Homo sapiens), Q9P2K8 [S808G]; assay: Selectivity interaction (KinomeScan (DiscoverX)) EUB0000092b EIF2AK4; details: at 10 µM
[4] = biological target: T2, Tyrosine-protein kinase receptor TYRO3 (Homo sapiens) (UniProt Q06418); assay: Selectivity interaction (Ambit KINOMEscan and KiNATiv profiling in Jurkat cells) EUB0000090b TYRO3; assay type: cell-based; details: at 1 µM
T2 sequence (whole entry): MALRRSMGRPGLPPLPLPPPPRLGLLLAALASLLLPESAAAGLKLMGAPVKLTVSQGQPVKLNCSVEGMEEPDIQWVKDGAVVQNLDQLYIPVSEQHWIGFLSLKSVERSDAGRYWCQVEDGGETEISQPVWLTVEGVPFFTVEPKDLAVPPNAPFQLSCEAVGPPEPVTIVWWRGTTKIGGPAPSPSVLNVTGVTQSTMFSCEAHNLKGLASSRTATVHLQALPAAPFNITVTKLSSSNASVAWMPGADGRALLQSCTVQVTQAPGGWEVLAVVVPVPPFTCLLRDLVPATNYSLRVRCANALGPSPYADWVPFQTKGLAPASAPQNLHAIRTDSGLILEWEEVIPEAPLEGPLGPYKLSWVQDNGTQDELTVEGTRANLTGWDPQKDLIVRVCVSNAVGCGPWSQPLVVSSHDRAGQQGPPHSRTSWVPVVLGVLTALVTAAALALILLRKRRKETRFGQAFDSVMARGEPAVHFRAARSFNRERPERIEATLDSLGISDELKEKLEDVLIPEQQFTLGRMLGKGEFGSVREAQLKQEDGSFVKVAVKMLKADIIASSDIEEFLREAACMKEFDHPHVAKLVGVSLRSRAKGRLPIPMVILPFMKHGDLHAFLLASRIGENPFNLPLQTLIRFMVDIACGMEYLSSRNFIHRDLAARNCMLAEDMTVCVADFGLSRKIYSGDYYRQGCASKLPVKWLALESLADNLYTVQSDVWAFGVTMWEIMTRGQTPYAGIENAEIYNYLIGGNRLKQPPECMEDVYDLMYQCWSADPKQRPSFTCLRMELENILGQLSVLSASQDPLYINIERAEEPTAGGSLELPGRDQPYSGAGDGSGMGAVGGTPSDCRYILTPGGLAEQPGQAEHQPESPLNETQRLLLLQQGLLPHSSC

[5] = biological target: T3, Cyclin-dependent kinase-like 2 (Homo sapiens) (UniProt Q92772); assay: Selectivity interaction (KinomeScan (DiscoverX)) EUB0000045b CDKL2
T3 sequence (whole entry): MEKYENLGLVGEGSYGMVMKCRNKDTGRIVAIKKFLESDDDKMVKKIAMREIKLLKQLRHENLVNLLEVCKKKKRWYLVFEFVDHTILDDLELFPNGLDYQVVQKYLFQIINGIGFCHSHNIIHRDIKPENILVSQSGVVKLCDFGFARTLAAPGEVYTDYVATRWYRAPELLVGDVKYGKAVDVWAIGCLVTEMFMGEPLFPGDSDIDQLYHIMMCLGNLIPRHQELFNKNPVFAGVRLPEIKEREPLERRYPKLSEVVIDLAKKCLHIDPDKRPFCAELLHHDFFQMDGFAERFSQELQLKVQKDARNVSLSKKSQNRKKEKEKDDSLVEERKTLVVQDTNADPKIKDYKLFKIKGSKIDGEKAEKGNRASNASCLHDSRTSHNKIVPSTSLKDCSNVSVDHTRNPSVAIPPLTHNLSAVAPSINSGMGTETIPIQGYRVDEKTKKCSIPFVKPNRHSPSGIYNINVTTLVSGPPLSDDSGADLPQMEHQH

[6] = biological target: Tyrosine-protein kinase JAK1 (Homo sapiens, UniProt P23458); assay: Selectivity interaction (KinomeScan (DiscoverX)) EUB0000045b JAK1; details: at 1 µM
[7] = biological target: Mitogen-activated protein kinase kinase kinase 9 (Homo sapiens) (UniProt P80192); assay: Selectivity interaction (KinomeScan (DiscoverX)) EUB0000618a MAP3K9; details: at 10 µM
[8] = biological target: Tyrosine-protein kinase SYK (Homo sapiens, UniProt P43405); assay: Selectivity interaction (ActivX KiNativ screen (ex vivo kinase selectivity in human PBMCs)) EUB0001619a SYK; assay type: cell-based; details: PBMC, at 1 µM
[9] = biological target: Ephrin type-A receptor 7 (Homo sapiens) (UniProt Q15375); assay: Selectivity interaction (Upstate Kinase Profiler service (Millipore)) EUB0000056c EPHA7; details: at 1 µM
[10] = biological target: Serine/threonine-protein kinase Nek7 (Homo sapiens) (UniProt Q8TDX7); assay: Selectivity interaction (Upstate Kinase Profiler service (Millipore)) EUB0000056c NEK7; details: at 1 µM
[11] = biological target: Serine/threonine-protein kinase WNK4 (Homo sapiens) (UniProt Q96J92); assay: Selectivity interaction (KinomeScan (DiscoverX)) EUB0000695a WNK4; details: at 100 nM

Chain of Ephrin type-A receptor 7 (Homo sapiens) (Q15375 28-998 limits assumed): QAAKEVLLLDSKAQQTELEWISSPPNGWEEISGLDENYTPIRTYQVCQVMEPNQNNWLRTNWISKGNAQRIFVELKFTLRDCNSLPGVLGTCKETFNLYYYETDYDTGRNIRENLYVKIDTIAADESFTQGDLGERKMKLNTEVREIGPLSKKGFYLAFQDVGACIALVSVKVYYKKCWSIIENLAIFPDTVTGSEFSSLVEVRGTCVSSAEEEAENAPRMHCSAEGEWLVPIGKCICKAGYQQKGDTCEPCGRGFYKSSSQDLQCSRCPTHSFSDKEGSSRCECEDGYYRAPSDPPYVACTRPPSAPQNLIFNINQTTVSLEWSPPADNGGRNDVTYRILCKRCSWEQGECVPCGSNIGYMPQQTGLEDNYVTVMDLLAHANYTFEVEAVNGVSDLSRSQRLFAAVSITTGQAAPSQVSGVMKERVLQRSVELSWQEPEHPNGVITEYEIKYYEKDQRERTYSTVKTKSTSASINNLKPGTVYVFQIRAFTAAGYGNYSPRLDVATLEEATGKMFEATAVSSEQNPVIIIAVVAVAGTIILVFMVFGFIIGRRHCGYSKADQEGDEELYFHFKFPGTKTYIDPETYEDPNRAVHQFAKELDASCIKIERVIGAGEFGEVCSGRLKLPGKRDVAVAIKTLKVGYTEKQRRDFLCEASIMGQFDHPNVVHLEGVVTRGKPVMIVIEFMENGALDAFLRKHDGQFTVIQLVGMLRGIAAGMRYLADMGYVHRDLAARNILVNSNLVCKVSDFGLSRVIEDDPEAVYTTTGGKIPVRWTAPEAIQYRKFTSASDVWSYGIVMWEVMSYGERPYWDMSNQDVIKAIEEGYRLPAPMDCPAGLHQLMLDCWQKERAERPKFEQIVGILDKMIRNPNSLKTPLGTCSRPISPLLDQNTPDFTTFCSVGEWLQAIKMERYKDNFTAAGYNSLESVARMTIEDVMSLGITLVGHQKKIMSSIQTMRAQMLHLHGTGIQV
Chain of eIF-2-alpha kinase GCN2 (Homo sapiens), Q9P2K8 [S808G] (Q9P2K8 whole entry S808G): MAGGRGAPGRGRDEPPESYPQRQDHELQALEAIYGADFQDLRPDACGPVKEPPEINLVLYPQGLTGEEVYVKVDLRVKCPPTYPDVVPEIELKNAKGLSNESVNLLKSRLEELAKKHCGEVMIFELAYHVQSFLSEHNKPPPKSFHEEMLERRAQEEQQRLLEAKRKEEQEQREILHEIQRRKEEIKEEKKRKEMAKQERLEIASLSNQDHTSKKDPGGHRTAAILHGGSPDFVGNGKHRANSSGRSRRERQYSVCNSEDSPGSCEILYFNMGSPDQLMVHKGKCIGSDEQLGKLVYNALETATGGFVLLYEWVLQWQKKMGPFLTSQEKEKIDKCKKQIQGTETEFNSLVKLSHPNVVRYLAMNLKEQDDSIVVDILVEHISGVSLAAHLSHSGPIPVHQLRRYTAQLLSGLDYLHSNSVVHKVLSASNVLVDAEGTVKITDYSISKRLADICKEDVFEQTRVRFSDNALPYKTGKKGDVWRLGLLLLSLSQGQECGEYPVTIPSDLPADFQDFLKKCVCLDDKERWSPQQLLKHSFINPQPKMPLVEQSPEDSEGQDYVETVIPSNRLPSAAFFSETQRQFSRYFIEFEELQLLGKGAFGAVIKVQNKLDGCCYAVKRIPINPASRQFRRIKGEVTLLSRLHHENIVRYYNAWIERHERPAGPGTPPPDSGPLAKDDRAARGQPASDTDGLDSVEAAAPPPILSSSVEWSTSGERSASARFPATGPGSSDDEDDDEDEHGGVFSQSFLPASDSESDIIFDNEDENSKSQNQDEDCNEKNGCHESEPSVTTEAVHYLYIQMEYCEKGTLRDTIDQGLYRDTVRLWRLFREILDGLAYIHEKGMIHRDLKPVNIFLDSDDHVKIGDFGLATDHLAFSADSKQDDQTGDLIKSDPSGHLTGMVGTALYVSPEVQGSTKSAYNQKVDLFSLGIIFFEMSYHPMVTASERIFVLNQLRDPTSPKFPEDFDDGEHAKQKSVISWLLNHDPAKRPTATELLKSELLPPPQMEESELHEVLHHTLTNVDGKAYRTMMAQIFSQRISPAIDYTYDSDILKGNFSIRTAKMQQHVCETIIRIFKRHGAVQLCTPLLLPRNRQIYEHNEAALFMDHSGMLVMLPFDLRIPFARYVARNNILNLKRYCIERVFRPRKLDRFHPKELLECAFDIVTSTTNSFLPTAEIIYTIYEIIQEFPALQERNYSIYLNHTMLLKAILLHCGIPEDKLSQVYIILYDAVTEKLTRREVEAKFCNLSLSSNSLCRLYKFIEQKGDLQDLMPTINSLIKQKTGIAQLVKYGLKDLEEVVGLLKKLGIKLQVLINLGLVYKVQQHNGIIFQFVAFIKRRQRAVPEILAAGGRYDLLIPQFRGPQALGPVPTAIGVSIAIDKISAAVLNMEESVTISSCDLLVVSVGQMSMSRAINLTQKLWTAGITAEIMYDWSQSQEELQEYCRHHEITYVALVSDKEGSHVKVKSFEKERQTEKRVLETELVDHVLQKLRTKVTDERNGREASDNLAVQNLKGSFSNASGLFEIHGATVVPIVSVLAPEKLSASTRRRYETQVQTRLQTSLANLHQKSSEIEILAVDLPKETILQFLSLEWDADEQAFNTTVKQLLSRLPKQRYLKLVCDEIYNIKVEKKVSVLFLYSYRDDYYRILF
Chain of Death-associated protein kinase 2 (Homo sapiens) (Q9UIK4 whole entry, looked up): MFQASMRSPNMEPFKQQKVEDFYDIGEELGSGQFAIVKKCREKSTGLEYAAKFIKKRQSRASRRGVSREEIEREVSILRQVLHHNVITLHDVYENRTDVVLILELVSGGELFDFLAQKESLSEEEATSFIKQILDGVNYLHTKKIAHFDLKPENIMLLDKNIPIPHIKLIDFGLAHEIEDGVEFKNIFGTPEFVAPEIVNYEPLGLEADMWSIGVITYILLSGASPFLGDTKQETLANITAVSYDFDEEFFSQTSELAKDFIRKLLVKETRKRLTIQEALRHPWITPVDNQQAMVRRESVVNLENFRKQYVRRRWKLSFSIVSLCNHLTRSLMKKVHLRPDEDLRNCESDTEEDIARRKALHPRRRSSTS
Chain of Mitogen-activated protein kinase kinase kinase 9 (Homo sapiens) (P80192 whole entry, looked up): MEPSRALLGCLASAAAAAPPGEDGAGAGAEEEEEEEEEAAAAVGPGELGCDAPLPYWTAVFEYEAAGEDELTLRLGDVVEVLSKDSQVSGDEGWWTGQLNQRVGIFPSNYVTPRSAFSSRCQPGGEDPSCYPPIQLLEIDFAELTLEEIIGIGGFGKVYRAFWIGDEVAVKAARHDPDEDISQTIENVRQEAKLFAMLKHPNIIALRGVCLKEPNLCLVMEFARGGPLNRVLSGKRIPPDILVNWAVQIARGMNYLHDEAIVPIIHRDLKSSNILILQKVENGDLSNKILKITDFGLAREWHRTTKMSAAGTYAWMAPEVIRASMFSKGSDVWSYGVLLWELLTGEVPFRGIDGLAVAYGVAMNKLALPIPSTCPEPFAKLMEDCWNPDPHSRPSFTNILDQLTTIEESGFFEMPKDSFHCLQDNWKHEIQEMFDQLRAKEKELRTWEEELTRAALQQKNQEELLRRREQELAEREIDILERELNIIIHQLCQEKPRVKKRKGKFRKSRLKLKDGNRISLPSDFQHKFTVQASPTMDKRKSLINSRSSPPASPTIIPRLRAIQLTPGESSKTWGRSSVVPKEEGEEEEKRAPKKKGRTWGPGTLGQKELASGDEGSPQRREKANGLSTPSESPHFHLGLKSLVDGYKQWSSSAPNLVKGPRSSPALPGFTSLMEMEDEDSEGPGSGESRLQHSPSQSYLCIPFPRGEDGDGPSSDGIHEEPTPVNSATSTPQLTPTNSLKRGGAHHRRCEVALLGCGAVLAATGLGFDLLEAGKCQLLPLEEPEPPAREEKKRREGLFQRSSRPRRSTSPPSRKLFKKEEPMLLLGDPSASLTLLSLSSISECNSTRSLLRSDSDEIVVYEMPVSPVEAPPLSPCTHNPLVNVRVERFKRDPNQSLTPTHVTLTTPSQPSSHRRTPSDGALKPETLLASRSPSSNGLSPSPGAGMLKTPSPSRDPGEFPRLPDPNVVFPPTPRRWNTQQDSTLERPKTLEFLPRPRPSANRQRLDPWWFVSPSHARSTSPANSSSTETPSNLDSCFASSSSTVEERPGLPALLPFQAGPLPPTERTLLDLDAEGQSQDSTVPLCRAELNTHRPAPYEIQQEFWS
Chain of Serine/threonine-protein kinase Nek7 (Homo sapiens) (Q8TDX7 whole entry, looked up): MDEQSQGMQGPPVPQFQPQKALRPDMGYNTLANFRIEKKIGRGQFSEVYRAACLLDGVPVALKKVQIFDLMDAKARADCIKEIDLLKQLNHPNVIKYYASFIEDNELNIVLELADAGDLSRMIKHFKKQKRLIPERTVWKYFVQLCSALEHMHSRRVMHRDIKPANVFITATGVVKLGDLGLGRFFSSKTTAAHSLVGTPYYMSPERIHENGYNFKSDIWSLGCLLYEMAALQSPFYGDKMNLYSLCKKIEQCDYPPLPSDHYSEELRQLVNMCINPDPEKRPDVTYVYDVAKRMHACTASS

`Nc1cnc(N2CCc3cc(S(=O)(=O)Nc4c(F)cc(Cl)cc4F)cc(N4CCCC4=O)c32)nc1` [TP-020n] was tested, and the % of control [1] was 91%.

`COCC(=O)NC/C=C/c1ccc2ncnc(Nc3ccc(Oc4ccc(C)nc4)c(C)c3)c2c1` [CP-724714] was tested, and the % of control [2] was 100%.

`CCC(=O)N1CCN(c2ccc(-n3c(=O)ccc4cnc5ccc(-c6cnc7ccccc7c6)cc5c43)cc2C(F)(F)F)CC1` gave a % of control [3] of 99%.

Compound `CN(C)C/C=C/C(=O)Nc1ccc(C(=O)N2CCCC(Nc3ncc(Cl)c(-c4c[nH]c5ccccc45)n3)C2)cc1` (configuration not stated) has a % of control [4] of 95%.

For `C=CC(=O)Nc1cc(-n2c(=O)ccc3cnc4ccc(-c5ccc(NS(C)(=O)=O)cc5)cc4c32)ccc1C`, the % of control ([5]; at 1 µM) was 93%, the % of control ([5]; at 10 µM) was 93% and the % of control [6] was 99%.

In the case of `O[C@H]1CC[C@H](Nc2ncc3nc(Nc4c(F)cc(F)cc4F)n([C@H]4CCOC4)c3n2)CC1`, the % of control [7] is reported as 100%.

`N#Cc1cccc(-c2c[nH]c3ncnc(N4CCOCC4)c23)c1` showed a % of inhibition [8] of 7%.

`Cc1ccc(-c2ccc3c(ccc4sc5c(c43)NC[C@@H](C)NC5=O)n2)cn1` showed a % of inhibition [9] of -5% and a % of inhibition [10] of -3%.

In the case of `Cc1cc(F)c(C(=O)Nc2cccc(-c3nncn3C(C)C)n2)cc1-n1cnc(C2CC2)c1`, the % of control [11] is reported as 100%.

— ChEMBL document CHEMBL5465560, “Selectivity Literature for EUbOPEN Chemogenomic Library” (2024)
